PubChem BioAssay AID1745844 (Carcinogenic Potency Database (CPDB), 2022)
Activity calls are given as the source filed them. The rule behind the calls is not given here.

System: rodent lifetime carcinogenesis bioassay, tumor incidence TD50
Assay: chronic cancer bioassays in animals – CPDB, compiled studies (AID 1745844)

Nc1nc(=S)c2ncn([C@H]3C[C@H](O)[C@@H](CO)O3)c2[nH]1
TD50 (mouse, strain B6C3F1, females, i.p., site: any site (literature study), lesion: several types, types named in the paper, dosed 43 weeks, study length 77 weeks): 4.48 mg/kg/day | TD50 (mouse, strain B6C3F1, females, i.p., site: lung, lesion: alveolar/bronchiolar adenoma + alveolar/bronchiolar carcinoma, dosed 43 weeks, study length 77 weeks): 6.87 mg/kg/day | TD50 (rat, strain Sprague-Dawley, females, i.p., site: any site (literature study), lesion: several types, types named in the paper, dosed 52 weeks, study length 78 weeks): 4.11 mg/kg/day | TD50 (rat, strain Sprague-Dawley, females, i.p., site: ear canal, lesion: carcinoma, NOS + squamous-cell carcinoma, dosed 52 weeks, study length 78 weeks): 2.1 mg/kg/day | TD50 (rat, strain Sprague-Dawley, females, i.p., site: ear canal, lesion: squamous-cell carcinoma, dosed 52 weeks, study length 78 weeks): 2.31 mg/kg/day | TD50 (rat, strain Sprague-Dawley, males, i.p., site: all sites, lesion: lymphoma, dosed 52 weeks, study length 78 weeks): 5.75 mg/kg/day | TD50 (rat, strain Sprague-Dawley, males, i.p., site: ear canal, lesion: carcinoma, NOS + squamous-cell carcinoma, dosed 52 weeks, study length 78 weeks): 4.38 mg/kg/day

CCCCN(CC)C(=O)SCCC
TD50 (mouse, strain B6AKF1, females, oral dosing, site: any site (literature study), lesion: several types, types named in the paper, dosed 76 weeks, study length 76 weeks): 219 mg/kg/day (inactive) | carcinogen call (mouse, strain B6AKF1, females, oral dosing, site: liver, lesion: hepatoma, dosed 76 weeks, study length 76 weeks): negative (inactive) | TD50 (mouse, strain B6AKF1, females, oral dosing, site: lung, lesion: adenoma, dosed 76 weeks, study length 76 weeks): 113 mg/kg/day (inactive) | carcinogen call (mouse, strain B6AKF1, males, oral dosing, site: any site (literature study), lesion: several types, types named in the paper, dosed 76 weeks, study length 76 weeks): negative (inactive) | carcinogen call (mouse, strain B6AKF1, males, oral dosing, site: liver, lesion: hepatoma, dosed 76 weeks, study length 76 weeks): negative (inactive) | carcinogen call (mouse, strain B6AKF1, males, oral dosing, site: lung, lesion: adenoma, dosed 76 weeks, study length 76 weeks): negative (inactive) | TD50 (mouse, strain B6C3F1, females, oral dosing, site: any site (literature study), lesion: several types, types named in the paper, dosed 76 weeks, study length 76 weeks): 251 mg/kg/day (inactive) | carcinogen call (mouse, strain B6C3F1, females, oral dosing, site: liver, lesion: hepatoma, dosed 76 weeks, study length 76 weeks): negative (inactive) | TD50 (mouse, strain B6C3F1, females, oral dosing, site: lung, lesion: adenoma, dosed 76 weeks, study length 76 weeks): 267 mg/kg/day (inactive) | carcinogen call (mouse, strain B6C3F1, males, oral dosing, site: any site (literature study), lesion: several types, types named in the paper, dosed 76 weeks, study length 76 weeks): negative (inactive) | carcinogen call (mouse, strain B6C3F1, males, oral dosing, site: liver, lesion: hepatoma, dosed 76 weeks, study length 76 weeks): negative (inactive) | carcinogen call (mouse, strain B6C3F1, males, oral dosing, site: lung, lesion: adenoma, dosed 76 weeks, study length 76 weeks): negative (inactive)

CO[C@@H]1[C@@H](O[C@@H]2O[C@H](C)[C@@H](O[C@H]3C[C@@](C)(O)[C@@H](OC(=O)CC(C)C)[C@H](C)O3)[C@H](N(C)C)[C@H]2O)[C@@H](CC=O)C[C@@H](C)[C@@H](O)/C=C/C=C/C[C@@H](C)OC(=O)C[C@H]1OC(C)=O
carcinogen call (rat, strain F344/DuCrj, females, in feed, site: liver, lesion: hepatocellular adenoma, dosed 104 weeks, study length 106 weeks): negative (inactive) | carcinogen call (rat, strain F344/DuCrj, females, in feed, site: liver, lesion: one or several types, types not named, dosed 52 weeks, study length 52 weeks): negative (inactive) | carcinogen call (rat, strain F344/DuCrj, males, in feed, site: liver, lesion: hepatocellular adenoma, dosed 104 weeks, study length 106 weeks): negative (inactive) | TD50 (rat, strain F344/DuCrj, males, in feed, site: liver, lesion: hepatocellular carcinoma, dosed 104 weeks, study length 106 weeks): 51300 mg/kg/day (inactive) | carcinogen call (rat, strain F344/DuCrj, males, in feed, site: liver, lesion: one or several types, types not named, dosed 52 weeks, study length 52 weeks): negative (inactive)

CCC[CH2][Sn]([CH2]CCC)([O]C(C)=O)[O]C(C)=O
TD50 (mouse, strain B6C3F1, females, in feed, site: any site (literature study), lesion: several types, types named in the paper, dosed 78 weeks, study length 92 weeks): 29.6 mg/kg/day | TD50 (mouse, strain B6C3F1, females, in feed, site: liver, lesion: hepatocellular adenoma + hepatocellular carcinoma + neoplastic nodule, dosed 78 weeks, study length 92 weeks): 31.6 mg/kg/day | TD50 (mouse, strain B6C3F1, females, in feed, site: liver, lesion: hepatocellular adenoma, dosed 78 weeks, study length 92 weeks): 31.6 mg/kg/day (inactive) | TD50 (mouse, strain B6C3F1, males, in feed, site: any site (literature study), lesion: several types, types named in the paper, dosed 78 weeks, study length 92 weeks): 178 mg/kg/day (inactive) | TD50 (mouse, strain B6C3F1, males, in feed, site: liver, lesion: hepatocellular adenoma + hepatocellular carcinoma + neoplastic nodule, dosed 78 weeks, study length 92 weeks): 29.2 mg/kg/day | TD50 (rat, strain Fischer 344, females, in feed, site: liver, lesion: hepatocellular adenoma + hepatocellular carcinoma + neoplastic nodule, dosed 78 weeks, study length 104 weeks): 94.4 mg/kg/day | carcinogen call (rat, strain Fischer 344, males, in feed, site: any site (literature study), lesion: several types, types named in the paper, dosed 78 weeks, study length 104 weeks): negative (inactive)
